According to PubChem BioAssay AID1259407 (Chemical Carcinogenesis Research Information System (CCRIS), 2018):
Active and inactive are the calls of the source. How the calls were made is not given here.

Tested on: CCRIS mutagenicity, Ames/micronucleus/aberration tests
Assay: CCRIS mutagenicity studies
[1] = Test System: AMES SALMONELLA TYPHIMURIUM, Strain/Indicator: TA98, Metabolic Activation: NONE, Method: PREINCUBATION
[2] = Test System: AMES SALMONELLA TYPHIMURIUM, Strain/Indicator: TA100, Metabolic Activation: NONE, Method: PREINCUBATION
[3] = Test System: AMES SALMONELLA TYPHIMURIUM, Strain/Indicator: TA100, Metabolic Activation: NONE, Method: STANDARD PLATE
[4] = Test System: AMES SALMONELLA TYPHIMURIUM, Strain/Indicator: TA1538, Metabolic Activation: NONE, Method: STANDARD PLATE

In the case of `Nc1cc([N+](=O)[O-])ccc1-c1ccc([N+](=O)[O-])cc1`, the mutagenic call [1] is reported as “active; positive”, the mutagenic call (Test System: AMES SALMONELLA TYPHIMURIUM, Strain/Indicator: TA98, Metabolic Activation: RAT LIVER S-9, AROCLOR 1254, Method: PREINCUBATION) is reported as “active; positive” and the mutagenic call [2] is reported as “active; positive”. The mutagenic call [3] was “active; positive”, the mutagenic call (Test System: AMES SALMONELLA TYPHIMURIUM, Strain/Indicator: TA100, Metabolic Activation: RAT LIVER S-9, AROCLOR 1254, Method: PREINCUBATION) was “active; positive” and the mutagenic call (Test System: AMES SALMONELLA TYPHIMURIUM, Strain/Indicator: TA104, Metabolic Activation: NONE, Method: STANDARD PLATE) was “active; positive”. For the same compound, the mutagenic call (Test System: AMES SALMONELLA TYPHIMURIUM, Strain/Indicator: TA4001, Metabolic Activation: NONE, Method: STANDARD PLATE) was “inactive; negative”, the mutagenic call (Test System: AMES SALMONELLA TYPHIMURIUM, Strain/Indicator: TA4006, Metabolic Activation: NONE, Method: STANDARD PLATE) was “active; positive” and the mutagenic call (Test System: AMES SALMONELLA TYPHIMURIUM, Strain/Indicator: TA7002, Metabolic Activation: NONE, Method: STANDARD PLATE) was “active; positive”. For the same compound, the mutagenic call (Test System: AMES SALMONELLA TYPHIMURIUM, Strain/Indicator: TA7002, Metabolic Activation: RAT LIVER S-9, AROCLOR 1254, Method: STANDARD PLATE) was “active; positive”, the mutagenic call (Test System: AMES SALMONELLA TYPHIMURIUM, Strain/Indicator: TA7003, Metabolic Activation: NONE, Method: STANDARD PLATE) was “active; positive” and the mutagenic call (Test System: AMES SALMONELLA TYPHIMURIUM, Strain/Indicator: TA7003, Metabolic Activation: RAT LIVER S-9, AROCLOR 1254, Method: STANDARD PLATE) was “active; positive”. The mutagenic call (Test System: AMES SALMONELLA TYPHIMURIUM, Strain/Indicator: TA7004, Metabolic Activation: NONE, Method: STANDARD PLATE) was “active; positive”, the mutagenic call (Test System: AMES SALMONELLA TYPHIMURIUM, Strain/Indicator: TA7004, Metabolic Activation: RAT LIVER S-9, AROCLOR 1254, Method: STANDARD PLATE) was “active; positive” and the mutagenic call (Test System: AMES SALMONELLA TYPHIMURIUM, Strain/Indicator: TA7005, Metabolic Activation: NONE, Method: STANDARD PLATE) was “active; positive”. The mutagenic call (Test System: AMES SALMONELLA TYPHIMURIUM, Strain/Indicator: TA7005, Metabolic Activation: RAT LIVER S-9, AROCLOR 1254, Method: STANDARD PLATE) was “active; positive”, the mutagenic call (Test System: AMES SALMONELLA TYPHIMURIUM, Strain/Indicator: TA7006, Metabolic Activation: NONE, Method: STANDARD PLATE) was “active; positive” and the mutagenic call (Test System: AMES SALMONELLA TYPHIMURIUM, Strain/Indicator: TA7006, Metabolic Activation: RAT LIVER S-9, AROCLOR 1254, Method: STANDARD PLATE) was “active; positive”. For the same compound, the mutagenic call (Test System: Ames Salmonella typhimurium, Strain/Indicator: TA102, Metabolic Activation: None, Method: Preincubation) was “active; positive” and the mutagenic call (Test System: Ames Salmonella typhimurium, Strain/Indicator: TA102, Metabolic Activation: Rat, liver, S-9, Aroclor 1254 (4%), Method: Preincubation) was “inactive; negative”.

In the case of `COc1cccc2c(NCCCNCCCl)c3ccccc3nc12`, the mutagenic call (Test System: AMES SALMONELLA TYPHIMURIUM, Strain/Indicator: TA98, Metabolic Activation: NONE, Method: STANDARD PLATE) is reported as “active; positive”, the mutagenic call [3] is reported as “active; positive” and the mutagenic call (Test System: AMES SALMONELLA TYPHIMURIUM, Strain/Indicator: TA1535, Metabolic Activation: NONE, Method: STANDARD PLATE) is reported as “inactive; negative”. The mutagenic call (Test System: AMES SALMONELLA TYPHIMURIUM, Strain/Indicator: TA1536, Metabolic Activation: NONE, Method: STANDARD PLATE) was “active; positive”, the mutagenic call (Test System: AMES SALMONELLA TYPHIMURIUM, Strain/Indicator: TA1537, Metabolic Activation: NONE, Method: STANDARD PLATE) was “active; positive” and the mutagenic call [4] was “active; positive”.

With `O=NN(c1ccc(C(=O)O)cc1)C1OC[C@@H](O)[C@@H](O)[C@@H]1O` (stereo partly drawn) the mutagenic call (Test System: AMES SALMONELLA TYPHIMURIUM, Strain/Indicator: TA100, Metabolic Activation: NONE, Method: LIQUID INCUBATION) was “active; positive”.

`Cl[Si](Cl)Cl` was tested, and the mutagenic call (Test System: Mouse lymphoma, Strain/Indicator: L5178Y (tk+/tk-), Metabolic Activation: None, Method: Suspension/plate) was “inactive; negative” and the mutagenic call (Test System: Mouse lymphoma, Strain/Indicator: L5178Y (tk+/tk-), Metabolic Activation: Rat, Liver, S-9, Aroclor 1254, Method: Suspension/plate) was “inactive; negative”.

In the case of `O=C(O)Cc1c[nH]c2ccc(O)cc12`, the mutagenic call [2] is reported as “inactive; negative”.

For `Cc1ccc(N=Nc2c(O)ccc3ccccc23)c([N+](=O)[O-])c1`, the mutagenic call (Test System: AMES SALMONELLA TYPHIMURIUM, Strain/Indicator: TA98, Metabolic Activation: HAMSTER, LIVER, S-9, AROCLOR 1254 (10%), Method: PREINCUBATION) was “active; positive”, the mutagenic call [1] was “inactive; negative” and the mutagenic call (Test System: AMES SALMONELLA TYPHIMURIUM, Strain/Indicator: TA98, Metabolic Activation: RAT, LIVER, S-9, AROCLOR 1254 (10%), Method: PREINCUBATION) was “inactive; negative”. The mutagenic call (Test System: AMES SALMONELLA TYPHIMURIUM, Strain/Indicator: TA100, Metabolic Activation: HAMSTER, LIVER, S-9, AROCLOR 1254 (10%), Method: PREINCUBATION) was “active; positive”, the mutagenic call [2] was “inactive; negative” and the mutagenic call (Test System: AMES SALMONELLA TYPHIMURIUM, Strain/Indicator: TA1535, Metabolic Activation: HAMSTER, LIVER, S-9, AROCLOR 1254 (10%), Method: PREINCUBATION) was “inactive; negative”. The mutagenic call (Test System: AMES SALMONELLA TYPHIMURIUM, Strain/Indicator: TA1535, Metabolic Activation: NONE, Method: PREINCUBATION) was “inactive; negative”, the mutagenic call (Test System: AMES SALMONELLA TYPHIMURIUM, Strain/Indicator: TA1535, Metabolic Activation: RAT, LIVER, S-9, AROCLOR 1254 (10%), Method: PREINCUBATION) was “inactive; negative” and the mutagenic call (Test System: AMES SALMONELLA TYPHIMURIUM, Strain/Indicator: TA1537, Metabolic Activation: HAMSTER, LIVER, S-9, AROCLOR 1254 (10%), Method: PREINCUBATION) was “inactive; negative”. The mutagenic call (Test System: AMES SALMONELLA TYPHIMURIUM, Strain/Indicator: TA1537, Metabolic Activation: NONE, Method: PREINCUBATION) was “inactive; negative” and the mutagenic call (Test System: AMES SALMONELLA TYPHIMURIUM, Strain/Indicator: TA1537, Metabolic Activation: RAT, LIVER, S-9, AROCLOR 1254 (10%), Method: PREINCUBATION) was “inactive; negative”.

In the case of `O=c1cc(-c2ccc(O)cc2)oc2cc(O)c([C@@H]3O[C@H](CO)[C@@H](O)[C@H](O)[C@H]3O)c(O)c12`, the mutagenic call (Test System: Ames Salmonella typhimurium, Strain/Indicator: TA98, Metabolic Activation: None, Method: Standard plate) is reported as “inactive; negative” and the mutagenic call (Test System: Ames Salmonella typhimurium, Strain/Indicator: TA98, Metabolic Activation: Rat, Liver, S-9, Aroclor 1254, Method: Standard plate) is reported as “inactive; negative”.

For `Nc1ccc(Cl)cc1[N+](=O)[O-]`, the mutagenic call (End Point: IN VITRO CHROMOSOMAL ABERRATIONS, Test System: CHINESE HAMSTER OVARY CELLS, Metabolic Activation: NONE) was “inactive; negative; precipitation occurred at 252 ug/ml”, the mutagenic call (End Point: IN VITRO CHROMOSOMAL ABERRATIONS, Test System: CHINESE HAMSTER OVARY CELLS, Metabolic Activation: RAT, LIVER, S-9, AROCLOR 1254) was “active; positive; precipitation occurred at all doses” and the mutagenic call (Test System: AMES SALMONELLA TYPHIMURIUM, Strain/Indicator: TA98(NR), Metabolic Activation: NONE, Method: STANDARD PLATE) was “inactive; negative”. The mutagenic call [1] was “inactive; negative”, the mutagenic call (Test System: AMES SALMONELLA TYPHIMURIUM, Strain/Indicator: TA98, Metabolic Activation: RAT, LIVER, S-9, KANECHLOR 500, Method: PREINCUBATION) was “active; positive” and the mutagenic call [2] was “inactive; negative”. For the same compound, the mutagenic call [4] was “active; positive”, the mutagenic call (Test System: AMES SALMONELLA TYPHIMURIUM, Strain/Indicator: TA1538, Metabolic Activation: RAT, LIVER, S-9, AROCLOR 1254, Method: STANDARD PLATE) was “active; positive” and the mutagenic call (Test System: AMES SALMONELLA TYPHIMURIUM, Strain/Indicator: YG1020, Metabolic Activation: NONE, Method: STANDARD PLATE) was “active; positive”. For the same compound, the mutagenic call (Test System: AMES SALMONELLA TYPHIMURIUM, Strain/Indicator: YG1021, Metabolic Activation: NONE, Method: STANDARD PLATE) was “active; positive” and the mutagenic call (Test System: AMES SALMONELLA TYPHIMURIUM, Strain/Indicator: YG1024, Metabolic Activation: NONE, Method: STANDARD PLATE) was “active; positive”.

In the case of `O=S(=O)(O)c1ccc2c(N=Nc3ccccc3)c(O)ccc2c1`, the mutagenic call [1] is reported as “inactive; negative”, the mutagenic call (Test System: AMES SALMONELLA TYPHIMURIUM, Strain/Indicator: TA98, Metabolic Activation: RAT, LIVER, S-9, PHENOBARBITAL, Method: PREINCUBATION) is reported as “inactive; negative” and the mutagenic call [2] is reported as “inactive; negative”. The mutagenic call (Test System: AMES SALMONELLA TYPHIMURIUM, Strain/Indicator: TA100, Metabolic Activation: RAT, LIVER, S-9, PHENOBARBITAL, Method: PREINCUBATION) was “inactive; negative”.
